ChEMBL document CHEMBL4177748, “Synthesis, structure-activity relationships, and mechanistic studies of 5-arylazo-tropolone derivatives as novel xanthine oxidase (XO) inhibitors” (Bioorg Med Chem, 2018)

molecular target: Xanthine dehydrogenase/oxidase (Bos taurus, UniProt P80457); experiment: Inhibition of bovine milk xanthine oxidase using xanthine as substrate pretreated for 15 mins followed by substrate addition measured after 8 mins; conditions: not given
Sequence (P80457 whole entry): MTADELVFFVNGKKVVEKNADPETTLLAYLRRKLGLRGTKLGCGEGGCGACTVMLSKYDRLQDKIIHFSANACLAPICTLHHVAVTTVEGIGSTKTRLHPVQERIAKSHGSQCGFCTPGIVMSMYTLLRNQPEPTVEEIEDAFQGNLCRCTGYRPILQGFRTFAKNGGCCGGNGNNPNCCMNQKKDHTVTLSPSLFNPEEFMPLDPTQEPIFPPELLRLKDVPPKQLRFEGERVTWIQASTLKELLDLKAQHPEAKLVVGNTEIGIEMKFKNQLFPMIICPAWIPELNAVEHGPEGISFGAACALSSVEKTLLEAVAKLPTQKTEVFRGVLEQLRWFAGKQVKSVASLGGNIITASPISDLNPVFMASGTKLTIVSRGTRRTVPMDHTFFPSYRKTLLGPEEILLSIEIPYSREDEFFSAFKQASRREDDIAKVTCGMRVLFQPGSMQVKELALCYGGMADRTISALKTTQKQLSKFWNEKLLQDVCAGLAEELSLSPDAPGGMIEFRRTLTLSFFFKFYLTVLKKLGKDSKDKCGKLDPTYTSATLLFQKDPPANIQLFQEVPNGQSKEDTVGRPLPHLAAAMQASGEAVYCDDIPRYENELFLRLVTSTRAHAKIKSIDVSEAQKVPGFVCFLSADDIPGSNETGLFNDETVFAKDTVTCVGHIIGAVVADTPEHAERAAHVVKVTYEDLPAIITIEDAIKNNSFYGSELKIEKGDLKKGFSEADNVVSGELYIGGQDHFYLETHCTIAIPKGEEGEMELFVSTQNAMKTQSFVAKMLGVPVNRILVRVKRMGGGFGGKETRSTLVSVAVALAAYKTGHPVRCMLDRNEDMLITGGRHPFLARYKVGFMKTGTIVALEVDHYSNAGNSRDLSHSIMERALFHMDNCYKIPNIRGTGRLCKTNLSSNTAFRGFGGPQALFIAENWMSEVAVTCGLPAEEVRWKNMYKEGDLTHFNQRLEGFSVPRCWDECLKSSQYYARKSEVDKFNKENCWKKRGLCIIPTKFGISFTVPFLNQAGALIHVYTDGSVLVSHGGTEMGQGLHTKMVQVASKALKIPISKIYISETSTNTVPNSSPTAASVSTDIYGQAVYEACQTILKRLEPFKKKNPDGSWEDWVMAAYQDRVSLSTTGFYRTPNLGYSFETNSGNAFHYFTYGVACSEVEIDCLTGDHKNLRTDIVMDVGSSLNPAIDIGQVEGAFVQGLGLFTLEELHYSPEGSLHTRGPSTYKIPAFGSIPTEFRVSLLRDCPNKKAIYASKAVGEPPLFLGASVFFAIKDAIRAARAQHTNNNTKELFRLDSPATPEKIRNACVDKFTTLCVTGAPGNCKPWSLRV

`Cc1cccc(/N=N/c2ccc(O)c(=O)cc2)c1` was tested. Which IC50 did it give?
Its IC50 is “Not Active”.

For `O=c1ccc(/N=N/c2cccc(Br)c2)ccc1O`, which IC50 is on record?
Its IC50 is “Not Active”.

With `O=c1ccc(/N=N/c2ccc(F)cc2)ccc1O` as the molecule, how does the IC50 read?
The IC50 was “Not Active”.

Which IC50 does the source give for `Cc1ccc(Br)cc1/N=N/c1ccc(O)c(=O)cc1` here?
Its IC50 is “Not Active”.

With `COc1ccc(/N=N/c2cc(C(F)(F)F)cc(C(F)(F)F)c2)ccc1=O` as the molecule, how does the IC50 read?
The IC50 was “Not Active”.

With `Cc1cc(C)cc(/N=N/c2ccc(O)c(=O)cc2)c1` as the molecule, how does the IC50 read?
Its IC50 is “Not Active”.

With `O=c1ccc(/N=N/c2cccc(I)c2)ccc1O` as the molecule, how does the IC50 read?
The IC50 was “Not Active”.

How did the IC50 turn out when `CCOC(=O)c1ccc(/N=N/c2ccc(O)c(=O)cc2)cc1` was run?
Its IC50 is “Not Active”.

same assay, conditions: read-out: IC50

`O=c1ccc(/N=N/c2cccc(F)c2)ccc1O` was tested. Which IC50 did it give?
The IC50 was 8.9 µM.

Which IC50 does the source give for `COC(=O)c1cccc(/N=N/c2ccc(O)c(=O)cc2)c1` here?
The IC50 was 80 µM.

With `O=c1ccc(/N=N/c2cccc(Cl)c2)ccc1O` as the molecule, how does the IC50 read?
Its IC50 is 17 µM.

For `COc1cc(/N=N/c2ccc(O)c(=O)cc2)cc(OC)c1OC`, which IC50 is on record?
The IC50 was 57 µM.

For `O=c1ccc(/N=N/c2cccc(C(F)(F)F)c2)ccc1O`, which IC50 is on record?
The IC50 was 7.4 µM.

Which IC50 does the source give for `COc1cccc(/N=N/c2ccc(O)c(=O)cc2)c1` here?
Its IC50 is 45 µM.

For `Cc1c(/N=N/c2ccc(O)c(=O)cc2)cccc1[N+](=O)[O-]`, which IC50 is on record?
The IC50 was 23 µM.
